Test results taken from patent publication US10028902B2, “Nuclear localization of GLP-1 stimulates myocardial regeneration and reverses heart failure” (BAYLOR RESEARCH INSTITUTE, priority 2013, dated 2018).

Experiments:
FoxO1 [1] = test: FOXO1 inhibitor injection in rats with ADM cardiomyopathy; type: in vivo, rat; details: total dose 24 mg/kg ip
Procedure: Animal protocol-4: Specific FOXO1 inhibitor (AS1842856, a small molecular compound from Millipore) was injected into rats with ADM cardiomyopathy to investigate if FOXO1 mediates ADM cardiomyopathy. There were 3 groups of rats as follows: (1) normal control rats, n=6; (2) ADM injection only group at total dose of 15 mg/kg/ip, 2.5 mg/kg/ip 6 times over 2 weeks, (n=6); (3) ADM at total dose of 15 mg/kg/ip, 2.5 mg/kg/ip 6 times over 2 weeks plus FOXO1 inhibitor injection (at total dose of 24 mg/kg/ip, 4 mg/kg/ip 6 times over 2 weeks (n=6). All rats were killed 4 weeks after ADM injection.
(§1) Echocardiographic measurements of LV fractional shortening and LV posterior wall thickness were made from digital images acquired with a 12 MHz broadband transducer (S12 probe, Philips Ultrasound, Bothell, Wash.). Fractional shortening was evaluated from the following formula: FS=(LVIDd−LVIDs)/LVIDd×100.

[2] = tested on: rat hearts with adriamycin cardiomyopathy; test: Adriamycin cardiomyopathy in rats: gross pathology, Masson's trichrome staining, echocardiography; type: in vivo
Procedure: (§2) Animal protocol-2: A total of 60 rats were divided into: (1) no treatment (normal control rats, n=12); (2) adriamycin (ADM)^38 injection only, at total dose of 15 mg/kg/ip, 2.5 mg/kg/ip 6 times over 2 weeks, n=12. (3) ADM plus GLP-1 peptide injection, at GLP-1 peptide fragment 7-37 human (dose of 50 nmol/kg/ip/time×6, N=12, from Sigma, St Louis, Mo.), (4) ADM injection plus UTMD-GLP1 peptide delivery (same dose of GLP-1 peptide fragment 7-37 human mixed with microbubble for UTMD), n=12; (5) ADM injection plus UTMD with pXL-BASII-CI-GLP-1/pCI-hyPB, n=12. Half rats were killed at 16 hours after last ADM injection; other half rats were killed at 4 weeks after UTMD. The thymidine analog, 5-bromo-2-deoxyuridine (BrdU) (100 mg/kg) was injected intraperitoneally 6 hours prior to euthanasia.
Animal protocol-3: UTMD was performed after established adriamycin cardiomyopathy defined as a fractional shortening <30% by echocardiography. There were 3 groups of rats as follows: (1) normal control rats, n=6; (2) UTMD with pXL-BASII-CI-DsRed/pCI-hyPB (n=6); (3) UTMD with pXL-BASII-CI-GLP-1/pCI-hyPB (n=12). All rats were killed 4 weeks after UTMD. The thymidine analog, 5-bromo-2-deoxyuridine (BrdU) (100 mg/kg) was injected intraperitoneally 6 hours prior to euthanasia.
Piggybac transposon donor plasmids and helper plasmids ratio (pXL-BASII-CI-GLP-1/pCI-hyPB) was 5:1. Microbubble or control solutions (0.5 ml diluted with 0.5 ml phosphate-buffered solution (PBS)) were infused over 5 min via pump (Genie, Kent Scientific, Torrington, Conn.). During the infusion, ultrasound was directed to the heart using a commercially available ultrasound transducer (S3, Sonos 5500, Philips Ultrasound, Bothell, Wash.). […]
as §1

FoxO1 [3] = test: Myocardial nuclear FoxO1 in adriamycin cardiomyopathy rats (western blot, qRT-PCR); type: in vivo, rat
Procedure: as §2, with “euthanasia. […]” for “euthanasia.”
(§3) Nuclear proteins extracts from cardiac tissue with a NE-PER Nuclear and Cytoplasmic Extraction Kit (Thermo Scientific, Rockford, Ill. 61105, USA). Protein concentrations were determined using the BCA-200 Protein Assay kit (Pierce); equal amounts of protein were separated by SDS-PAGE. […] Horseradish peroxidase secondary antibodies were used, and chemiluminescence was determined using the Super Signal West Dura detection system (Pierce); nuclear marker (lamin) was used to confirm equal loading. […]

[4] = tested on: HL-1 cardiac muscle cell line; test: Nuclear FoxO1 in HL-1 cardiac muscle cell line treated with adriamycin (immunofluorescent staining); type: cell-based; details: 0.25, 0.5, and 1.0 μM, 48 hrs, HL-1 cells
Procedure: The HL-1 cell line was a generous gift from Dr. William C. Claycomb^40 in Louisiana State University Medical Center, New Orleans, La. The cells were maintained in Claycomb basal medium (Sigma) supplemented with 10% fetal bovine serum, 0.1 mM norepinephrine and 2 mM L-glutamine. HL-1 cells were treated with adriamycin at 0 μM, 0.25 μM, 0.50 μM, or 1.00 μM for 48 hrs in complete growth medium, and were subjected to immunofluorescent staining.

Topoisomerase IIβ = test: Myocardial nuclear topoisomerase IIβ expression (western blot, qRT-PCR); type: in vivo, rat; details: ADM only or ADM plus UTMD-GLP-1NLS groups, P<0.001
Procedure: […] Half rats were killed at 16 hours after last ADM injection; other half rats were killed at 4 weeks after UTMD. The thymidine analog, 5-bromo-2-deoxyuridine (BrdU) (100 mg/kg) was injected intraperitoneally 6 hours prior to euthanasia.
Total RNA was isolated from 100 mg of harvested heart using the Trizol reagent (Invitrogen), according to the manufacturer's instructions and reverse-transcribed using Superscript III RT (Invitrogen). Real-time RT-qPCR analysis was performed on an ABI 7700 Sequence Detector (Applied Biosystems) using SYBR Green (RT2 SYBR Green qPCR Kit, Qiagen). Data were normalized to HKG expression (endogenous control). Changes in gene expression were normalized to control rat heart tissue. Complementary DNA PCR primer sequences information should be requested to the correspondence author.
as §3

[5] = intravenous infusions, patients with myocardial infarction or chronic heart failure; cited from earlier work

## CCn1cc(C(=O)O)c(=O)c2c(N)c(F)c(NC3CCCCC3)cc21 [AS1842856]
FoxO1 [1]; ADM cardiomyopathy rats, FIG. 12
  activation of myocardial nuclear FoxO1: able to block
FoxO1 [1]; FIG. 12 panel A-B
  ADM cardiomyopathy (fractional shortening, LVPWd): reverse

## COc1cccc2c1C(=O)c1c(O)c3c(c(O)c1C2=O)C[C@@](O)(C(=O)CO)C[C@@H]3O[C@H]1C[C@H](N)[C@H](O)[C@H](C)O1 [Adriamycin, adriamycin]
[2]; echocardiography, adriamycin cardiomyopathy, total dose 15 mg/kg ip
  LV mass and wall thickness: decreased
[2]; rats with adriamycin cardiomyopathy, FIG. 2 B, C
  gross pathology of LV walls and cavities compared to normal controls: thin LV walls and dilated LV cavities
FoxO1 [3]; qRT-PCR, FIG. 6B, ADM only group, or ADM after UTMD GLP-1NLS gene delivery
  FoxO1 mRNA level, fold relative to normal control or normal plus UTMD-GLP-1NLS groups: 12.6 fold
FoxO1 [3]; western blots, FIG. 6A
  FoxO1 in cardiac nuclear protein extracts: significant increase
[4]
  overexpression of nuclear FoxO1: significantly activates
Topoisomerase IIβ
  TOP IIβ mRNA level in normal group, fold greater than in the treated group: 18 fold

## GLP-1 peptide fragment 7-37 human (HAEGTFTSDVSSYLEGQAAKEFIAWLVKGRG; Glucagon-like peptide 1(7-37); UniProt P01275 98-128, looked up) [GLP-1 peptide fragment 7-37 human from Sigma, injected ip]
[2]; echocardiography, FIGS. 4 and 11
  LV mass and wall thickness in adriamycin cardiomyopathy after therapy: not

## GLP-1 protein: GLP-1 protein given by intravenous infusion to patients in cited studies
[5]
  global LV function and the function of ischemic LV segments: improved
